Results on 1 compound are retold here after the NIST ThermoML archive (doi:10.1021/je034066w).

For this data set the following is noted: Liquid.

Structures are written as SMILES. Numbers after ± are expanded uncertainties.

On to `CC(C)O` [propan-2-ol], for which the Critical pressure (Direct measurement) was 4755 ± 48 kPa. Besides, under “Visual observation in a stirred cell”, the Critical temperature was determined as 508.15 ± 0.12 K.
